Measured values: the supplement of paper PMC10307832

Columns and labels:
Experiment in all cases: relative viability (nuclei count vs DMSO), 5 days (fraction); higher = more cells survive
Idelalisib + Lapatinib = compound: CC[C@H](Nc1ncnc2[nH]cnc12)c1nc2cccc(F)c2c(=O)n1-c1ccccc1 [Idelalisib] + CS(=O)(=O)CCNCc1ccc(-c2ccc3ncnc(Nc4ccc(OCc5cccc(F)c5)c(Cl)c4)c3c2)o1 [Lapatinib] (partner 2 µM)
In short: (§1)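 Nuclei were stained with Hoechst during a one-step fixation (final 0.05% Triton X-100, 1% formaldehyde, 1 ug/ml Hoechst) carried out 5 days after dosing, then counted on 4× images. The cells, lung cancer lines in 1536-well plates, had been dosed by pin tool the day after seeding with one drug alone or a fixed anchor-drug dose plus five library-drug doses (not always all listed) in √10 steps. Relative viability is the nuclei count in treated wells divided by that in vehicle wells, and each value is the median of duplicate plates.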

Idelalisib + Decitabine = compound: CC[C@H](Nc1ncnc2[nH]cnc12)c1nc2cccc(F)c2c(=O)n1-c1ccccc1 [Idelalisib] + Nc1ncn([C@H]2C[C@H](O)[C@@H](CO)O2)c(=O)n1 [Decitabine] (partner 2 µM)
In short: as §1

Pemetrexed + Trametinib = compound: Nc1nc2[nH]cc(CCc3ccc(C(=O)N[C@@H](CCC(=O)O)C(=O)O)cc3)c2c(=O)[nH]1 [Pemetrexed] + CC(=O)Nc1cccc(-n2c(=O)n(C3CC3)c(=O)c3c(Nc4ccc(I)cc4F)n(C)c(=O)c(C)c32)c1 [Trametinib] (partner 0.02 µM)
In short: as §1

Pemetrexed + Crizotinib = compound: Nc1nc2[nH]cc(CCc3ccc(C(=O)N[C@@H](CCC(=O)O)C(=O)O)cc3)c2c(=O)[nH]1 [Pemetrexed] + C[C@@H](Oc1cc(-c2cnn(C3CCNCC3)c2)cnc1N)c1c(Cl)ccc(F)c1Cl [Crizotinib] (partner 1 µM)
In short: as §1

Row | Cell Line | relative viability (Idelalisib + Lapatinib; first compound 0.04 µM) | relative viability (Idelalisib + Lapatinib; first compound 0.1265 µM) | relative viability (Idelalisib + Lapatinib; first compound 0.4 µM) | relative viability (Idelalisib + Lapatinib; first compound 1.265 µM) | relative viability (Idelalisib + Lapatinib; first compound 4 µM) | relative viability (Idelalisib + Decitabine; first compound 0.04 µM) | relative viability (Idelalisib + Decitabine; first compound 0.1265 µM) | relative viability (Idelalisib + Decitabine; first compound 0.4 µM) | relative viability (Idelalisib + Decitabine; first compound 1.265 µM) | relative viability (Idelalisib + Decitabine; first compound 4 µM) | relative viability (Pemetrexed + Trametinib; first compound 0.002 µM) | relative viability (Pemetrexed + Trametinib; first compound 0.006325 µM) | relative viability (Pemetrexed + Trametinib; first compound 0.02 µM) | relative viability (Pemetrexed + Trametinib; first compound 0.06325 µM) | relative viability (Pemetrexed + Trametinib; first compound 0.2 µM) | relative viability (Pemetrexed + Crizotinib; first compound 0.002 µM) | relative viability (Pemetrexed + Crizotinib; first compound 0.006325 µM) | relative viability (Pemetrexed + Crizotinib; first compound 0.02 µM) | relative viability (Pemetrexed + Crizotinib; first compound 0.06325 µM) | relative viability (Pemetrexed + Crizotinib; first compound 0.2 µM)
1 | NCI-H1651 | 0.707 | 1 | 0.577 | 0.825 | 0.868 | 0.717 | 0.374 | 0.611 | 0.578 | 0.651 | 0.857 | 0.783 | 0.821 | 0.827 | 0.786 | 0.879 | 0.792 | 0.92 | 0.864 | 0.851
2 | HCC-78 | 0.709 | 0.81 | 0.577 | 0.916 | 0.754 | 0.738 | 0.731 | 0.667 | 0.647 | 0.665 |  | 0.671 | 0.676 | 0.382 | 0.356 |  | 0.304 | 0.337 | 0.25 | 0.197
3 | NCI-H23 | 1.04 | 1.06 | 0.872 | 1.08 | 0.893 | 0.331 | 0.339 | 0.309 | 0.313 | 0.329 | 0.426 | 0.294 | 0.408 | 0.375 | 0.381 | 0.507 | 0.467 | 0.589 | 0.438 | 0.425
4 | LOU-NH91 | 0.82 | 0.737 | 0.67 | 0.725 | 0.75 | 0.789 | 0.84 | 0.79 | 0.78 | 0.816 | 0.754 | 0.759 | 0.782 | 0.682 | 0.638 | 0.701 | 0.747 | 0.988 | 0.636 | 0.504
5 | LXF-289 | 0.945 | 0.901 | 0.906 | 0.96 | 0.943 | 0.438 | 0.402 | 0.368 | 0.438 | 0.395 | 0.685 | 0.673 | 0.729 | 0.676 | 0.637 | 0.808 | 0.832 | 0.841 | 0.843 | 0.79
6 | NCI-H460 | 1.1 | 1.2 | 0.932 | 1.01 | 1.02 | 0.382 | 0.562 | 0.448 | 0.466 | 0.503 |  | 0.0664 | 0.241 | 0.0967 | 0.0451 | 0.842 | 0.794 | 1.02 | 0.197 | 0.0567
7 | NCI-H1792 | 0.465 | 0.942 | 0.903 | 0.878 | 0.918 | 0.505 | 0.599 | 0.514 | 0.558 | 0.472 | 0.374 | 0.406 | 0.533 | 0.393 | 0.41 | 0.993 | 0.972 | 0.987 | 0.974 | 0.937
8 | EMC-BAC-2 | 0.91 | 0.953 | 0.827 | 0.905 | 0.833 | 1 | 1.03 | 0.942 | 1.05 | 0.941 | 0.826 | 0.755 | 0.986 | 0.807 | 0.618 | 0.76 | 0.639 | 0.831 | 0.803 | 0.741
